Results published in US9845482B2, “Compositions and methods for enhancing bioenergetic status in female germ cells” (The General Hospital Corporation, priority 2011, dated 2017).

Columns and labels:
Assay type in all cases: in vivo
[1] = test system: oocytes of aged female mice (C57BL/6); test: Dietary supplementation of aged female mice: mitochondrial distribution in oocytes; details: for percentage of oocytes exhibiting abnormal mitochondrial clustering (change): compared to Hist 12 M; for abnormal mitochondrial distribution, present in % of oocytes: diet for 3 months, apigenin 0.5 g/kg, luteolin 0.5 g/kg, SRT-1720 2 g/kg
Protocol: Whether mitochondrial aggregation, which has been linked to the decline in oocyte quality with advancing age (Tarín et al. Biol Reprod 2001 65:141-150), was affected by caloric intake was assessed. Oocytes were denuded of cumulus cells, incubated in MitoTracker Red CMRox (Life Technologies), and processed for microscopic analysis. Levels of ATP in individual MII oocytes were determined using a commercially available bioluminescent assay kit under the manufacturer's specifications (Sigma Aldrich Corporation, St. Louis, Mo., USA).
(§1) Female mice (8 months old, strain C57BL/6) were maintained on a 12:12 light dark cycle and provided ad-libitum access to water and food. Conditions within rooms were maintained at 21°±1° C. with 50%±20% relative humidity. Mice were placed on the experimental diets at 8.5 months of age and were maintained for 3 months on the diets. All diets were custom made, ordered from Research Diets: OpenStandard Diet (20 kcal % Protein, 15 kcal % Fat and 65 kcal % Carbohydrate) and the experimental groups consisted of regular OpenStandard Diet, OpenStandard Diet+Apigenin at 0.5 g/kg of body weight, OpenStandard Diet+Luteolin at 0.5 g/kg, and OpenStandard Diet+SRT-1720 at 2 g/kg. Food intake was measured weekly and average weight gain was assessed every two weeks. Each experimental group consisted of 12 randomly allocated mice. When mice were euthanized an additional group of 3-month old C57BL/6 females (3 M) were used as positive controls. In all groups, oocyte numbers were assessed following hormonal stimulation for superovulation.
(§2) Methods for determining spindle abnormalities and chromosomal misalignment are described above in Example 8. Abnormal mitochondrial distribution was determined to be present in 16.13% of oocytes from 3 M mice, 46% of oocytes from Hist 12 M mice, 7.7% of oocytes following supplementation with apigenenin, 12% of oocytes following supplementation with luteolin and 6.9% of oocytes following supplementation with SRT-1720. Spindle abnormalities were determined to be present in 18.3% of oocytes in 3 M mice, 60% of oocytes in Hist 12 M mice, 32% of oocytes following supplementation with apigenenin, 32% of oocytes following supplementation with luteolin and 32.8% of oocytes following supplementation with SRT-1720. Chromosomal misalignment was determined to be present 18.3% of oocytes in 3 M mice, 62% of oocytes in Hist 12 M mice, 44% of oocytes from mice supplemented with apigenenin, 40% of oocytes following supplementation with luteolin and 40.9% of oocytes following supplementation with SRT-1720.

[2] = test system: aged female mice (C57BL/6); test: Dietary supplementation of aged female mice: oocyte yield, maturation and quality after superovulation; details: for percentage of mature, metaphase II oocytes retrieved following superovulation / quality of oocytes in aged mice: compared to age appropriate controls (Hist 12 M); for oocyte yield: diet for 3 months from 8.5 months of age, apigenin 0.5 g/kg, luteolin 0.5 g/kg, SRT-1720 2 g/kg, superovulation
Source text: Yield, maturational status and post-fertilization developmental competency of oocytes obtained from 12-month-old (aged) female mice returned to an ad-libitum (AL) diet for 1 month following 7.5 months of dietary CR (CR-AL-fed) initiated in a stepwise fashion at 3.5 months of age were first evaluated. This protocol was based on prior work showing that female mice maintained on CR during adulthood continue to breed and deliver offspring into advanced ages after their return to an AL diet (Selesniemi et al. 2008 Aging Cell 7:622-629). Mice were superovulated by injection of pregnant mare serum gonadotropin (PMSG, 10 IU; Sigma Aldrich Corporation, St. Louis, Mo., USA) followed by human chorionic gonadotropin (hCG, 10 IU; Sigma Aldrich Corporation, St. Louis, Mo., USA) 46-48 hours later. Oocytes were collected from oviducts 15-16 hours after hCG injection, denuded of cumulus cells using hyaluronidase (Irvine Scientific, Santa Ana, Calif., USA), washed with human tubal fluid (HTF; Irvine Scientific, Santa Ana, Calif., USA) supplemented with BSA (fraction V, fatty acid-free; Sigma Aldrich Corporation, St. Louis, Mo., USA), and classified as MII (first polar body in perivitelline space), maturation arrested (germinal vesicle breakdown with no polar body extrusion, or germinal vesicle intact), or degenerated.
as §1
Because of the extremely low yield of oocytes from the aged control females, historical data for oocyte yield from 12-month-old C57BL/6 females (referred to as “Hist 12 M”; from Selesniemi et al., Proc Natl Acad Sci USA. 2011 July 26; 108(30): 12319-12324) can be used as an additional reference point for an aged control group.
In FIG. 45A, the percentage of oocytes assessed at metaphase II is shown. In FIG. 45B, the percentage of oocytes arrested at the germinal vesicle (immature) stage is shown. In FIG. 45C, the percentage of atretic (dead) oocytes is shown.

[3] = test system: MII oocytes of aged female mice (C57BL/6); test: Dietary supplementation of aged female mice: spindle abnormalities and chromosomal misalignment in MII oocytes; details: for chromosomal misalignment in MII oocytes (change) / percentage of spindle abnormalities in MII oocytes (change): compared to Hist 12 M; for chromosomal misalignment, present in % of oocytes / spindle abnormalities, present in % of oocytes: diet for 3 months, apigenin 0.5 g/kg, luteolin 0.5 g/kg, SRT-1720 2 g/kg
Protocol: Confocal analysis of α-tubulin and DNA distribution were examined. Superovulated oocytes were denuded of cumulus cells, briefly incubated in Acidified Tyrode's Solution (Irvine Scientific, Santa Ana, Calif., USA) to soften the zona pellucida, and immunostained using mouse anti-α-tubulin antibody (Sigma Aldrich Corporation, St. Louis, Mo., USA) followed by goat anti-mouse IgG conjugated with Alexa Fluor-488 (Life Technologies, Carlsbad, Calif.). Oocytes were mounted using Vectashield containing propidium iodide (PI; Vector Laboratories) and analyzed by confocal microscopy.
as §1, §2

Compound	percentage of oocytes exhibiting abnormal mitochondrial clustering (change) [1]	abnormal mitochondrial distribution, present in % of oocytes [1]	percentage of mature, metaphase II oocytes retrieved following superovulation [2]	quality of oocytes in aged mice [2]	oocyte yield [2]	chromosomal misalignment in MII oocytes (change) [3]	percentage of spindle abnormalities in MII oocytes (change) [3]	chromosomal misalignment, present in % of oocytes [3]	spindle abnormalities, present in % of oocytes [3]
O=C(Nc1ccccc1-c1cn2c(CN3CCNCC3)csc2n1)c1cnc2ccccc2n1 [SRT-1720, N-[2[3-(piperazin-1-ylmethyl)imidazo[2,1-b][1,3]thiazol-6-yl]phenyl]quinoxaline-2-carboxamide]	reduced	6.9%	do not affect	improve the quality of oocytes	increase oocyte yield	reduced chromosomal misalignment	reduced percentage of spindle abnormalities	40.9%	32.8%
O=c1cc(-c2ccc(O)cc2)oc2cc(O)cc(O)c12 [apigenin, 5,7-Dihydroxy-2-(4-hydroxyphenyl)-4H-1-benzopyran-4-one]	reduced	7.7%	do not affect	improve the quality of oocytes	increase oocyte yield	reduced chromosomal misalignment	reduced percentage of spindle abnormalities	44%	32%
O=c1cc(-c2ccc(O)c(O)c2)oc2cc(O)cc(O)c12 [luteolin, 2-(3,4-Dihydroxyphenyl)-5,7-dihydroxy-4-chromenone]	reduced	12%	do not affect	improve the quality of oocytes	increase oocyte yield	reduced chromosomal misalignment	reduced percentage of spindle abnormalities	40%	32%
